Source: US20140249143A1, “Compounds And Methods For Enhancing Innate Immune Responses” (GlaxoSmithKline LLC, priority 2011, published 2014)

What was measured:
[1] = test system: HCV genotype 1b subgenomic replicon; test: Anti-Hepatitis C replicon assay, genotype 1b (luciferase); type: cell-based; settings: Hepatitis C virus; luciferase activity measured 48 hours later; read-out: HCV Genotype 1B Replicon pEC50 (converted)
Experimental: (§1) Compounds were assayed for activity against HCV using the genotype 1a and 1b subgenomic replicon model systems. Stable cell lines bearing the genotype 1a and 1b replicons were used for screening of compounds. Both replicons are bicistonic and contain the firefly luciferase gene. The ET cell line is stably transfected with RNA transcripts harboring a I389luc-ubi-neo/NS3-3′/ET replicon with firefly luciferase-ubiquitin-neomycin phosphotransferase fusion protein and EMCV-IRES driven NS3-5B polyprotein containing the cell culture adaptive mutations (E1202G; T1280I; K1846T) (Krieger at al, 2001 and unpublished). The genotype 1a replicon is a stable cell line licensed from Apath LLC, modified to contain the firefly luciferase gene. The cells were grown in DMEM, supplemented with 10% fetal calf serum, 2 mM Glutamine, Penicillin (100 IU/mL)/Streptomycin (100 μg/mL), 1× nonessential amino acids, and 250-500 μg/mL G418 (“Geneticin”). They were all available through Life Technologies (Bethesda, Md.). The cells were plated at 0.5×10^4 cells/well in 384 well plates containing compounds. The final concentration of compounds ranged between 0.03 pM to 50 μm and the final DMSO concentration of 0.5-1%.
(§2) Luciferase activity was measured 48 hours later by adding a Steady glo (Promega, Madison, Wis.). Percent inhibition of replication data was plotted relative to no compound control. Under the same condition, cytotoxicity of the compounds was determined using cell titer glo (Promega, Madison, Wis.). IC50s were determined from a 10 point dose response curve using 3-4-fold serial dilution for each compound, which spans a concentration range>1000 fold. BioAssay determines the level of inhibition for each compound by normalizing cross-talk corrected plate values against the negative (low or background, cells with no compound present) and positive (high DMSO, no cells) controls to determine Percent Inhibition:
(§3) These normalized values are exported to IC50 where they are plotted against the molar compound concentrations using the standard four parameter logistic equation: […]

[2] = test system: reconstructed human epidermis (RHE) keratinocytes; test: JAK/STAT induction in reconstructed human epidermis (western blot, real-time PCR); type: cell-based; settings: 10 μM (IFN-alpha 100 U/mL), 6 and 72 hrs
Experimental: First, reconstructed human epidermis (“RHE”) consisting of cultured human keratinocyte cells were incubated in triplicate with media containing either the media alone, media+0.1% DMSO, media containing 10 μM of several putative JAK/STAT activator compounds described herein in Tables 1 and 2 (Example 1, Example 2, Example 11, and compound no. 89 (as a negative control)), or media containing 100 U/mL of a positive control Interferon-alpha (IFN-alpha) recombinant protein at 37° C. in a humidified atmosphere containing 5% CO2, for 6 and 72 hours.
At the end of the incubation period, the RHE tissues were cut into two sections. One section was ¼ of the total size and the second section was […].

[3] = test system: ISG56 (Interferon-Stimulated Gene 56) promoter ISRE; test: ISG56 luciferase reporter assay in HEK 293 cells; type: cell-based; settings: Homo sapiens, HEK293; HEK 293 reporter, 24 hours; 100% = small molecule control test compound; read-out: ISG56 (Average Max Response) %
Experimental: Compounds of the present invention were tested against a HEK (Human Embryonic Kidney) 293 cell line that was stably transfected with a firefly luciferase reporter gene under the control of the ISG56 (Interferon-Stimulated Gene 56) promoter ISRE (Interferon-Stimulated Response Element). While the ISRE is in the opposite orientation of the wild type promoter, literature^1 cites that the response elements are pallindromic and function properly in either orientation. ^1Reich, N., Evans, B., Levy, D., Fahey, D., Knight, E., Damell, J. E. (1987) Interferon-induced transcription of a gene encoding a 15-kDa protein depends on an upstream enhancer element. See, Proc. Natl. Acad. Sci. 84, (6394-6398).
In preparation for the assay, test compounds were serially diluted 3-fold in DMSO from a typical top concentration of 5 mM and plated at 0.2 μL in a 384-well, polystyrene, tissue culture treated plate with lid (Greiner Bio-One North America, Inc., Monroe, N.C.) to generate 11-point dose response curves in the assay. Low control wells (0% response) contained 0.2 μL of DMSO alone, and high control wells (100% response) contained 0.2 μL of a small molecule control test compound.
Frozen stocks of the transfected HEK 293 cells were washed and recovered in DMEM I Ham's F-12 media (Invitrogen Corporation, Carlsbad, Calif.) supplemented with 10% v/v qualified Australian fetal bovine serum (FBS) (Invitrogen Corporation, Carlsbad, Calif.), 1× GlutaMAX™ (Invitrogen Corporation, Carlsbad, Calif.), 1×MEM non-essential amino acids (NEAA) (Invitrogen Corporation, Carlsbad, Calif.) and 500 μg/ml Geneticin® (Invitrogen Corporation, Carlsbad, Calif.). The cells were diluted to 500,000 cells/mL in the supplemented DMEM/Ham's F-12 media, and 20 μL of the cell suspension were added to each well of the previously prepared 384-well compound plate, resulting in 10,000 cells/well. The plate, with lid, were placed in a 37° C., 5% CO2 humidified incubator for 24 hours.
Following incubation, the plates were removed and placed on the bench top without lids to equilibrate to room temperature for 30 minutes. Steady-Glo® (Promega Corporation, Madison, Wis.) was prepared according to the manufacturer's instructions, and 10 μL were added to each plate well. After a twenty minute incubation at room temperature, luminescence was read on a ViewLux™ (PerkinElmer Inc., Waltham, Mass.).
The data for dose responses were plotted as % activation versus compound concentration following normalization using the formula 100*((U−C1)/(C2−C1)), where U was the unknown value, C1 was the average of the low (0% response) control wells and C2 was the average of the high (100% response) control wells. Curve fitting was performed with the equation y=A+((B−A)/(1+(10^x/10^C)^D)), where A was the minimum response, B was the maximum response, C was the log(EC50) and D was the Hill slope. The results for each test compound were recorded as pEC50 values (—C in the above equation) and as max response values at a given concentration.

ISGs and cytokines mRNA [4] = test: Dose response of ISG induction in vivo; parameters: species or system CD-1 mice; settings: 0, 200, 600, 1000 mg/kg oral gavage, 24 h, blood and tissues
Experimental: Naive male CD-1 mice were obtained from Charles Rivers Laboratories (Wilmington, Mass.) and administered with Example 11 in a dose response (0, 200, 600, and 1000 mg/kg; three mice per dose group) by oral gavage. The dose of 200 mg/kg was in 0.5% HPMC/0.1% Tween 80 whereas the rest of doses were in 30% solutol/70% PEG400. At 24 h, the blood and tissues were collected and processed as described above. The gene expressions of various ISGs and cytokines were monitored by real time RT-PCR (see above for the details).

[5] = test system: HCV genotype 1a subgenomic replicon; test: Anti-Hepatitis C replicon assay, genotype 1a (luciferase); type: cell-based; settings: Hepatitis C virus; luciferase activity measured 48 hours later; read-out: HCV Genotype 1A Replicon pEC50 (converted)
Experimental: as §1, §2, §3

JAK/STAT = JAK/STAT activator assay; type: cell-based
STAT1 phosphorylation = STAT1 phosphorylation immunoblot in HCV replicon cells; type: cell-based; settings: IFNα 100 U/ml
Experimental: IFNα (100 U/ml) and DMSO were included as controls. The total cell lysates were analyzed on a 4-20% SDS-PAGE gradient gel and followed by immunoblotting using anti-phopho STAT1 antibody (Cell Signaling). The level of actin was monitored as a loading control. The bands were visualized by the alkaline phosphatase activity conjugated with the secondary antibody (Promega) using ProtoBlot II AP System™ (Promega).

human JAK1 = molecular target: T1, human JAK1 (Homo sapiens, UniProt P23458); test: JAK1 reconstitution in U4A and 2fGH cells (phosphor-STAT1 western blot, Taqman mRNA); type: cell-based; settings: Example 1 10 μM, IFNα 100 U/ml
T1 construct: expressed in transfected cells; host or cells: U4A cells (JAK1-deficient derivative of the human fibroblast line 2fGH), transduced with a baculovirus mammalian expression system
Experimental: 2fGH and U4A cells were obtained from the Cleveland Clinic. 2fGH is a human fibroblast cell line and U4A cell line is a derivative 2fGH harboring a defect in JAK1 expression (Muller, et al., Nature 366, 129-135 (1993)). Green fluoroscent protein (GFP) or human JAK1 was transduced in U4A cells by baculovirus mammalian expression system. After 24 hours post transduction, the cells were treated with DMSO, Example 1 (10 μM), IFNα (100 U/ml), IFNβ (100 U/ml), or IFNγ (100 U/ml). Untransduced U4A cells and 2fGH cells were included as controls for 6 or 18 hours. The cells were harvested at indicated time points and used for detecting phosphor-STAT1 by western blot (FIG. 10, panel A) or for mRNA analysis by Taqman quantitation (FIG. 10, panel B).
The total cell lysates were analyzed on a 4-20% SDS-PAGE gradient gel and followed by immunoblotting using anti-phopho STAT1 antibody (Cell Signaling). The level of actin was monitored as a loading control. The bands were visualized by the alkaline phosphatase activity conjugated with the secondary antibody (Promega) using ProtoBlot II AP system (Promega).
Gene expression was measured using TaqMan Fast Universal PCR Master Mix (Applied Biosystems) and gene specific probes and murine primers in HT7900 FAST System (Invitrogen). As housekeeping genes, actin and GAPDH were used for normalization. Data was calculated by the ΔΔCt method and fold change determined compared to non-treated control samples.

[6] = test system: interferon stimulated genes (ISGs); test: Expression of interferon stimulated genes in HCV replicon cells (real time RT-PCR); type: cell-based; settings: Example 1 2 μM, IFNα 100 U/ml
Excerpt: The up-regulation of interferon stimulated genes upon treatment with Example 1 was monitored by quantitative real time RT-PCR using specific primers for each gene, as shown in FIG. 3. […] Total RNA was isolated using RNeasy 96 kit (Qiagen) and converted to cDNA using High Capacity cDNA reverse transcription kit (Applied Biosystems). For real time PCR, the cDNA was used for PCR reactions using TaqMan Fast Universal PCR master mix (Applied Biosystems) and specific primers (Applied Biosystems). As housekeeping genes, actin and GAPDH were used for normalization. Data was calculated by the ΔΔCt method and fold change determined compared to DMSO-treated control samples.

[7] = test system: respiratory syncytial virus (RSV); test: RSV plaque assay on HEp-2 cells; type: cell-based; settings: 1000 U/ml
Experimental: A broad spectrum of antiviral activity of Example 1 was accessed by testing it for potency against other viruses. (See FIG. 8). […] RSV (long form) was inoculated on the layer of HEp-2 cells at multiplicity of infection of <0.001. After 4 hour post infection, the inoculum was replaced with 0.3% agarose containing MEM and various concentration of Example 1 or IFNα. The cells were incubated for up to 5-6 days until the plaques were visible. The cells were then fixed with 3% formaldehyde and stained with neutral red for visualization.

ISGs and cytokines mRNA [8] = test: Induction of ISGs in mice in vivo; parameters: species or system Balb/c mice; settings: Example 1 oral 300 mg/kg; murine IFNα2 30 ug/kg intravenously
Experimental: Naive Balb/c mice were purchased from Charles River Laboratories (Wilmington, Mass.) and administered with murine IFNα2 (30 ug/kg) intravenously or administered with oral Example 1 (300 mg/kg in 30/70% solutol/polyethylene glycol 400). The mice were then euthanized by CO2 inhalation at 0.5, 2, 6, 8, and 24 hours for sample collection. Four mice per dose group were tested.
For RNA isolation, the blood was collected in an RNAprotect™ tube (Qiagen) and processed with RNeasy Protect™ animal blood kit (Qiagen) according to the manufacturer's protocol. To preserve RNA, 30-200 mg of tissue pieces were stored in RNAlater™ solution (Invitrogen) until use. For RNA isolation, the thawed tissues were homogenized using a TissueLyser™ system (Qiagen) and processed with RNeasy 96 Universal Tissue Kit™ (Qiagen) according to the manufacturer's protocol. To remove DNA contamination, on-plate DNase digestion was included during the RNA purification.
For real time RT-PCR, cDNA was made using High Capacity cDNA Reverse Transcription Kit™ (Applied Biosystems). Gene expression was measured using TaqMan Fast Universal PCR Master Mix™ (Applied Biosystems) and gene specific probes and murine primers in HT7900 FAST System™ (Invitrogen). As housekeeping genes, actin and GAPDH were used for normalization. Data was calculated by the ΔΔCt method and fold change determined compared to non-treated control samples.

T1 sequence (P23458 whole entry): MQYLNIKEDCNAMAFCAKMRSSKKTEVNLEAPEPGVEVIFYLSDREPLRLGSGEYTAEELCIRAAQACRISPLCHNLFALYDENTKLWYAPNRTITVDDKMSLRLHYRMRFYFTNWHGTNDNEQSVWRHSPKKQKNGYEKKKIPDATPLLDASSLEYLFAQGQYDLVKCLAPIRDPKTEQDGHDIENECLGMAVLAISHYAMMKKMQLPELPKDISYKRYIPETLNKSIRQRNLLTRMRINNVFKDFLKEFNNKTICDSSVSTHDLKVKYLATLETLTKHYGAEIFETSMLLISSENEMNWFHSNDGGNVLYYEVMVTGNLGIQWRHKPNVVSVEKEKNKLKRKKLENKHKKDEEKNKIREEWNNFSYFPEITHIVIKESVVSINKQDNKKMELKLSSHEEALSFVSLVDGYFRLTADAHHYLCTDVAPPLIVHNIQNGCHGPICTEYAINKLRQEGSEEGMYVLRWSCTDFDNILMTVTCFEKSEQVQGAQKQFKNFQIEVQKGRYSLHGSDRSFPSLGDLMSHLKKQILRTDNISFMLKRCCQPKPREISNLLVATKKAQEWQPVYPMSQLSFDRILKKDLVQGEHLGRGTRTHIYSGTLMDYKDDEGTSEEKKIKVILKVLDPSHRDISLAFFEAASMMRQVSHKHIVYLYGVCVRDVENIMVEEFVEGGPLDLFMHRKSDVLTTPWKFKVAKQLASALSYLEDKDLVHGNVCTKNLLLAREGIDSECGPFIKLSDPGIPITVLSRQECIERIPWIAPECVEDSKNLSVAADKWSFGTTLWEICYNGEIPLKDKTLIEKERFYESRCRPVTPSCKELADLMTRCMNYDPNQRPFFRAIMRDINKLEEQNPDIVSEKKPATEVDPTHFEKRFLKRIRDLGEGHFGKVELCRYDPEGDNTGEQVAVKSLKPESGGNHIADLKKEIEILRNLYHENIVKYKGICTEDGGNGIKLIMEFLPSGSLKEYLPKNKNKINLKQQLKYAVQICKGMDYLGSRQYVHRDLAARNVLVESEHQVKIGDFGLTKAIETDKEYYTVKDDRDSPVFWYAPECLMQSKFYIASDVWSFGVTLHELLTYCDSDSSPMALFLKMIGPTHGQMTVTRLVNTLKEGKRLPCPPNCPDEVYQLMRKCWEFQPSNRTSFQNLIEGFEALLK

Molecule: FC(F)(F)c1nc(C(F)(F)F)c2ccc3nc(-c4nnco4)cn3c2n1 [Compound 11, 4-(1,3,4-oxadiazol-2-yl)-10,12-bis(trifluoromethyl)-2,5,11,13-tetraazatricyclo[7.4.0.0^2,^6]trideca-1(9),3,5,7,10,12-hexaene]
- EC50 [1]: 794 nM
- Stat1 phosphorylation (western blot) [2]: Stat1 phosphorylation
- Emax [3]: 293%
- induction of ISG in dose response (ISGs and cytokines mRNA [4]): correlated with given doses in all tissues
- EC50 [5]: 251 nM

Molecule: FC(F)(F)c1cc(C(F)(F)F)c2ccc3nc(-c4nncs4)cn3c2n1 [Compound 89]
- Stat1 phosphorylation (western blot) [2]: did not show phosphorylation of Stat1
- result in the JAK/STAT activator assay (JAK/STAT): negative

Molecule: IFNα
- STAT1 phosphorylation (STAT1 phosphorylation; Example 1 2 uM, 1 h, 6 h, 24 h): induced STAT1 phosphorylation
- time at which phosphorylated STAT1 peaked (STAT1 phosphorylation): 1 h
- activation of STAT1 in U4A cells transduced with JAK1 (human JAK1): activation of STAT1 was observed
- p-STAT1 in U4A cells (JAK1 deficient) transduced with GFP (human JAK1): not present
- time of maximum induction of ISGs [6]: 4 h
- Stat1 phosphorylation (western blot) [2]: Stat1 phosphorylation
- RSV plaques [7]: significantly reduced the number and size of the plaques

B1: murine IFNα: murine IFNα2 administered intravenously to mice (30 ug/kg) as comparator (protein, UniProt P01573 24-190, looked up)
Interferon alpha-2: CDLPHTYNLRNKRALKVLAQMRRLPFLSCLKDRQDFGFPLEKVDNQQIQKAQAIPVLRDLTQQTLNLFTSKASSAAWNATLLDSFCNDLHQQLNDLQTCLMQQVGVQEPPLTQEDALLAVRKYFHRITVYLREKKHSPCAWEVVRAEVWRALSSSVNLLPRLSEEKE
- up-regulation of ISGs at 24 hours (ISGs and cytokines mRNA [8]): evidently diminished
